Where two headings read alike, the source gives them in different places.
What was measured:
ECAO [1] = target: T1, ECAO (Escherichia coli, UniProt P46883); design: method as in PMID 7765483; conditions: cited from earlier work
T1 construct: made in house; host or cells: E. coli; inferred from the overexpression strain E. coli (pKK233-3-tynA)

ECAO [2] = target: T1, ECAO; assay: ECAO inhibitor test (spectroscopic amine oxidase activity assay, purified ECAO, substrate PEA); format: biochemical; conditions: for decrease of ECAO activity by aminoglycoside: aminoglycoside 1 mM (Fig 2C), sisomycin p = 0.06; for IC50: purified ECAO
Procedure: To determine the effect of different inhibitors on ECAO activity, we used purified ECAO protein and a spectroscopic amine oxidase activity assay, which is not as sensitive to additives as the Amplex Red assay. In short, 21 ng of ECAO protein was incubated with differing amounts of inhibitors in Krebs-Ringer phosphate glucose buffer for 20 min at 30°C. After incubation, we added substrate (0.5 mM PEA) and a mixture of 1 mM vanillic acid, 0.5 mM 4-aminopyridine, and 16 U of horseradish peroxidase, and measured the A492nm immediately and hourly thereafter.

wt E. coli (tynA+) = assay: Growth inhibition assay in liquid medium, wt / tynA+ strains; format: cell-based, Escherichia coli; conditions: SC concentrations lower than 5–10 mM (S5 Fig)
Procedure: (§1) To assess the effect of inhibitors on bacterial growth, discs with different concentrations of SC were placed on LA plates freshly plated with either tynA+ E. coli (three different strains) or tynA- E. coli (five strains). The inhibition zones were measured the next day. For the growth inhibition assay in a liquid medium, the same strains were cultured in tryptic soy broth (TSB) medium for 14–16 h. Then, 10^3 cells were inoculated into TSB medium with different concentrations (0–100 mg/mL) of SC and cultured further at 37°C with shaking at 100 rpm until the following day. Then, 10 μL of bacterial mixture was plated on lactose medium plates, and the plates were incubated at 37°C for 14–16 h before counting the colonies.
(§2) The inhibition of growth by a selective hydrazine-based human amine oxidase inhibitor, BTT-2052 [30], and SC on tynA+ and tynA- strains was tested similarly in M9-lactose-PEA medium using inhibitor concentrations of 0–0.5 mM.

ΔtynA strain = assay: Growth inhibition assay in liquid medium, ΔtynA / tynA- strains; format: cell-based, Escherichia coli; conditions: liquid medium (S5 Fig)
Procedure: as §1, §2

[3] = tested on: tynA+ E. coli and tynA- E. coli; assay: Growth inhibition on LA plates (discs with SC); format: cell-based, Escherichia coli; conditions: data not shown
Procedure: as §1

ECAO [4] = target: T1, ECAO; assay: ECAO activity with human granulocytes as sole substrate (Amplex Red, H2O2 production); format: biochemical; conditions: 30 nM ECAO, 200,000 granulocytes per well, 37°C, Cells + ECAO + SC, p = 0.004
Text: To test if ECAO has a substrate on human granulocytes, we used purified recombinant protein ECAO, whose production and purification has been described. To collect human neutrophils, we extracted granulocytes from the fresh peripheral blood of healthy volunteers using Ficoll (GE Healthcare). We collected buffy coats according to standard procedure, lysed red blood cells with Pharm Lyse (BD Biosciences, Franklin Lakes, NJ, USA), washed with PBS, counted the cells, and used the cells immediately. The assay was conducted in 25 mM HEPES and 150 mM NaCl (pH 7.4), and we used 30 nM ECAO and 200,000 viable granulocytes per well. PEA was used as a positive control for the substrate, and the specific activity was determined using parallel wells with SC, as described above. The assay was conducted at 37°C. Three independent assays (different blood donors) were performed with duplicates.

[5] = PEA, aminoglycoside concentrations 10 μM–10 mM, read-out: half maximal inhibitory concentration (IC50) of aminoglycosides on ECAO activity on PEA

T1 sequence (P46883 31-757): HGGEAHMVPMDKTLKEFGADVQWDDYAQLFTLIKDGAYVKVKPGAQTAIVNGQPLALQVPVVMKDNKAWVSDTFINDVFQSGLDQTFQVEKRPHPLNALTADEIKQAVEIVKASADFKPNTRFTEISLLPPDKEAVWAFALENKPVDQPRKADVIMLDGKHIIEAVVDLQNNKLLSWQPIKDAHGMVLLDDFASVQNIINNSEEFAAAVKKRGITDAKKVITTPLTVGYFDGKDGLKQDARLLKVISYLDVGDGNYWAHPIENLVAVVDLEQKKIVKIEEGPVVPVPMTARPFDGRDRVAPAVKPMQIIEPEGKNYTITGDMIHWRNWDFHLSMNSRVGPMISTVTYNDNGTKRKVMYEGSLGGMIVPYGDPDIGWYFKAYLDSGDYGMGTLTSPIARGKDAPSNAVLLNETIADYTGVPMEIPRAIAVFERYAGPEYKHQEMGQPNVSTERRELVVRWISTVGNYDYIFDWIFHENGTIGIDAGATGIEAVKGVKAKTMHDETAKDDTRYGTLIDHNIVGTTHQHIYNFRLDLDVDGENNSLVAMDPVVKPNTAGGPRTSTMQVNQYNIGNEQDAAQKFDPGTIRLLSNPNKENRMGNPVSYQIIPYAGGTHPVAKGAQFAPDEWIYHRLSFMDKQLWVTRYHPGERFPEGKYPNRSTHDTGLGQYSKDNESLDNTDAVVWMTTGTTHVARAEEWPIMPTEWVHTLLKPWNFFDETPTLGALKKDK

Row | Molecule | effect on ECAO activity (ECAO [1]) | decrease of ECAO activity by aminoglycoside (ECAO [2]) | IC50 (ECAO [2]; [5]) | also measured
1 | NO [hydroxylamine] | inhibited | – | – | –
2 | NC[C@H]1O[C@H](O[C@H]2[C@H](O)[C@@H](O[C@H]3O[C@H](CO)[C@@H](O)[C@H](N)[C@H]3O)[C@H](N)C[C@@H]2N)[C@H](N)C[C@@H]1O [tobramycin] | – | 23–61% | 800 µM | –
3 | NCC[C@H](O)C(=O)N[C@@H]1C[C@H](N)[C@@H](O[C@H]2O[C@H](CN)[C@@H](O)[C@H](O)[C@H]2O)[C@H](O)[C@H]1O[C@H]1O[C@H](CO)[C@@H](O)[C@H](N)[C@H]1O [amikacin] | – | 23–61% | 1000 µM | –
4 | Gentamycin | – | no effect | – | –
5 | NC[C@H]1O[C@H](O[C@H]2[C@H](O)[C@@H](O[C@H]3O[C@H](CO)[C@@H](O)[C@H](N)[C@H]3O)[C@H](N)C[C@@H]2N)[C@H](O)[C@@H](O)[C@@H]1O [kanamycin] | – | 23–61% | 3800 µM | –
6 | NNCCc1ccccc1 [phenelzine] | inhibited | – | – | –
7 | CC(C)NNC(=O)c1ccncc1 [iproniazid] | inhibited | – | – | –
8 | N[C@@H]1C[C@H]1c1ccccc1 [tranycypromine] | inhibited | – | – | –
9 | CN[C@@H]1[C@@H](O)[C@@H](O[C@@H]2[C@@H](O)[C@H](O[C@H]3OC(CN)=CC[C@H]3N)[C@@H](N)C[C@H]2N)OC[C@]1(C)O [sisomycin] | – | 23–61% | – | –
10 | NNC(N)=O [SC, semicarbazide] | inhibited | – | – | IC50 (ECAO [2]; 0.5 mM PEA, seven inhibitor concentrations 0.1–10 μM, 30°C, read-out: half maximal inhibitory concentration (IC50) on ECAO activity on PEA): 0.7 µM; effect on growth in liquid rich media (wt E. coli (tynA+)): no significant effect; effect on growth of the ΔtynA strain (ΔtynA strain): no effect; effect on bacterial growth on LA plates ([3]; at 100 mg/mL): minimal; effect on bacterial growth on LA plates ([3]; under the concentration of 100 mg/mL): no effect; effect on H2O2 production by ECAO with granulocytes as only source of substrate (ECAO [4]): inhibited

From publication PMC4640556, “Primary Amine Oxidase of Escherichia coli Is a Metabolic Enzyme that Can Use a Human Leukocyte Molecule as a Substrate” (PLoS ONE, 2015)
